Reference: US20210045385A1, “PYRIDAZINONE-SUBSTITUTED KETOXIMES AS HERBICIDES” (FMC Corporation, priority 2018, published 2021)

Key:
Type in all cases: in vivo
[1] = tested on: Italian ryegrass (Lolium multiflorum); assay: Test A preemergence, visual plant response rating
Method in brief: (§1)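 Compared with untreated controls, treated plants received a visual injury score on a 0–100 scale around 10 days after application. The compound, in a non-phytotoxic solvent with surfactant, was given as a preemergence soil spray or postemergence at the one- to two-leaf stage.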

[2] = tested on: barnyardgrass (Echinochloa crus-galli); assay: Test A preemergence, visual plant response rating
Method in brief: as §1

[3] = tested on: foxtail, giant (giant foxtail, Setaria faberii); assay: Test A preemergence, visual plant response rating
Method in brief: as §1

[4] = tested on: kochia (Kochia scoparia); assay: Test A preemergence, visual plant response rating
Method in brief: as §1

[5] = tested on: pigweed (Amaranthus retroflexus); assay: Test A preemergence, visual plant response rating
Method in brief: as §1

[6] = tested on: ragweed (common ragweed, Ambrosia elatior); assay: Test A preemergence, visual plant response rating
Method in brief: as §1

[7] = tested on: Italian ryegrass (Lolium multiflorum); assay: Test A postemergence, visual plant response rating
Method in brief: as §1

[8] = tested on: barnyardgrass (Echinochloa crus-galli); assay: Test A postemergence, visual plant response rating
Method in brief: as §1

[9] = tested on: blackgrass (Alopecurus myosuroides); assay: Test A postemergence, visual plant response rating
Method in brief: as §1

[10] = tested on: corn (Zea mays); assay: Test A postemergence, visual plant response rating
Method in brief: as §1

[11] = tested on: foxtail, giant (giant foxtail, Setaria faberii); assay: Test A postemergence, visual plant response rating
Method in brief: as §1

[12] = tested on: galium (catchweed bedstraw, Galium aparine); assay: Test A postemergence, visual plant response rating
Method in brief: as §1

[13] = tested on: kochia (Kochia scoparia); assay: Test A postemergence, visual plant response rating
Method in brief: as §1

[14] = tested on: pigweed (Amaranthus retroflexus); assay: Test A postemergence, visual plant response rating
Method in brief: as §1

[15] = tested on: ragweed (common ragweed, Ambrosia elatior); assay: Test A postemergence, visual plant response rating
Method in brief: as §1

[16] = tested on: wheat (Triticum aestivum); assay: Test A postemergence, visual plant response rating
Method in brief: as §1

[17] = tested on: barnyardgrass (Echinochloa crus-galli); assay: Test B flooded paddy test, visual plant response rating; details: 250 g ai/ha, Flood, applied to paddy water, 2-leaf stage, evaluated after 13 to 15 days
Method in brief: (§2)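 Greenhouse paddy conditions applied: two-leaf plants, a 3 cm flood above the soil surface maintained throughout, and compound added to the water rather than the foliage. Plants were judged visually against controls at 13 to 15 days.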

[18] = tested on: ducksalad (Heteranhera limosa); assay: as above; details: 250 g ai/ha, Flood, applied to paddy water, 2-leaf stage, evaluated after 13 to 15 days
Method in brief: as §2

[19] = tested on: rice (Oryza sativa); assay: as above; details: 250 g ai/ha, Flood, applied to paddy water, 2-leaf stage, evaluated after 13 to 15 days
Method in brief: as §2

[20] = tested on: sedge, umbrella (small-flower umbrella sedge, Cyperus difformis); assay: as above; details: 250 g ai/ha, Flood, applied to paddy water, 2-leaf stage, evaluated after 13 to 15 days
Method in brief: as §2

[21] = 125 g ai/ha, preemergence, 0 to 100 scale, 0 no effect, 100 complete control
[22] = 500 g ai/ha Preemergence, approx. 10 days
[23] = 500 g ai/ha, postemergence, 0 is no effect, 100 is complete control
[24] = Postemergence, 125 g ai/ha, 0 to 100 scale (0 no effect, 100 complete control)

Structure (SMILES): C#CCO/N=C(\c1c(O)c(C)nn(C)c1=O)c1ccc(F)c2ccccc12 [Compound 108, 4-[(Z)-(4-fluoro-1-naphthalenyl)(2-propyn-1-yloxy)imino]methyl-5-hydroxy-2,6-dimethyl-3(2H)-pyridazinone]
- Ryegrass, Italian plant response rating [1, 21]: 100
- Ryegrass, Italian plant response rating (0 to 100 scale) [1, 22]: 100
- Barnyardgrass plant response rating [2, 21]: 90
- Barnyardgrass plant response rating (0 to 100 scale) [2, 22]: 100
- Foxtail, Giant plant response rating [3, 21]: 100
- Foxtail, Giant plant response rating (0 to 100 scale) [3, 22]: 100
- Kochia plant response rating [4, 21]: 50
- Kochia plant response rating (0 to 100 scale) [4, 22]: 100
- Pigweed plant response rating [5, 21]: 100
- Pigweed plant response rating (0 to 100 scale) [5, 22]: 100
- Ragweed plant response rating [6, 21]: 90
- Ragweed plant response rating (0 to 100 scale) [6, 22]: 100
- Ryegrass, Italian plant response rating (0 to 100 scale) [7, 23]: 100
- Ryegrass, Italian plant response rating [7, 24]: 100
- Barnyardgrass plant response rating (0 to 100 scale) [8, 23]: 90
- Barnyardgrass plant response rating [8, 24]: 90
- Blackgrass plant response rating (0 to 100 scale) [9, 23]: 100
- Blackgrass plant response rating [9, 24]: 100
- Corn plant response rating (0 to 100 scale) [10, 23]: 80
- Corn plant response rating [10, 24]: 30
- Foxtail, Giant plant response rating (0 to 100 scale) [11, 23]: 90
- Foxtail, Giant plant response rating [11, 24]: 80
- Galium plant response rating (0 to 100 scale) [12, 23]: 100
- Galium plant response rating [12, 24]: 100
- Kochia plant response rating (0 to 100 scale) [13, 23]: 80
- Kochia plant response rating [13, 24]: 60
- Pigweed plant response rating (0 to 100 scale) [14, 23]: 100
- Pigweed plant response rating [14, 24]: 90
- Ragweed plant response rating (0 to 100 scale) [15, 23]: 100
- Ragweed plant response rating [15, 24]: 80
- Wheat plant response rating (0 to 100 scale) [16, 23]: 80
- Wheat plant response rating [16, 24]: 70
- Plant response rating, Barnyardgrass (0 to 100 scale, 0 is no effect, 100 is complete control) [17]: 0
- Plant response rating, Ducksalad (0 to 100 scale, 0 is no effect, 100 is complete control) [18]: 0
- Plant response rating, Rice (0 to 100 scale, 0 is no effect, 100 is complete control) [19]: 0
- Plant response rating, Sedge, Umbrella (0 to 100 scale, 0 is no effect, 100 is complete control) [20]: 0
